According to the supplement of paper PMC11208160:

Assay: recombinant barcode read abundance after kanamycin selection (control-corrected) (log10(CPM+1)); higher = more efficient recombination; sequences stand for … in AGTGCAGAGAAAATCGGCCAGTTTTCTCTGCCTGCAGTCCGCATGCCGT…AGATTTATGCAGCGGACTGCCTTTCTCCCAAAGTGATAAACCGGACAGTATCATGGACCGGTTTTCCCGGTAATCCGTATTTGCAAGGTTGGTTTCACT; site = the 11-nt target
Method in brief: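 A vector carrying a T7-inducible recombinase and the last 73 bp of the bridge RNA received, by Gibson cloning, oligos encoding a promoter, target, barcode and the first 104 bridge RNA bases under J23119. The pooled constructs entered E. coli together with a donor plasmid by electroporation. Selection used chloramphenicol/ampicillin/kanamycin with 0.1 mM IPTG, with chloramphenicol/ampicillin LB agar as the control, each in two replicates. Recombination efficiency is the averaged, control-corrected counts-per-million of barcodes at recombinant junctions, reported as log10(CPM+1).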
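Also: IS621 recombinase and bridge RNA in Escherichia coli cells.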

| Sequence | recombinant barcode read abundance (log10) |
| --- | --- |
| GAGCAGACTTGGGTTCTAACCTGTTGCCT (site GAGCAGACTAG) | 0.931 |
| GAGCAGACTTGGGTTCTAACCTGTTGCCT (site GAGCCGACTAG) | 0.146 |
| GAGCAGACTTGGGTTCTAACCTGTTGCCT (site GAGCGGACTAG) | 0.235 |
| GAGCAGACTTGGGTTCTAACCTGTTGCCT (site GAGCTGACTAG) | 0.631 |
| GAGCCACCTTGGGTTCTAACCTGTTGCCA (site GAGCAACCTCG) | 0.0457 |
| GAGCCACCTTGGGTTCTAACCTGTTGCCA (site GAGCCACCTTG) | 1.02 |
| GAGCGAGCTTGGGTTCTAACCTGTTGCCG (site GAGCGAGCTCA) | 0.199 |
| GAGCGAGCTTGGGTTCTAACCTGTTGCCG (site GAGCGAGCTCC) | 0.582 |
| GAGCGAGCTTGGGTTCTAACCTGTTGCCG (site GAGCGAGCTCG) | 1.11 |
| GAGCGAGCTTGGGTTCTAACCTGTTGCCG (site GAGCGAGCTCT) | 0.308 |
| GAGCGATCTTGGGTTCTAACCTGTTGCGT (site GAGCGATCTAC) | 1.85 |
| GAGCGATCTTGGGTTCTAACCTGTTGCGT (site GAGTGAGCTAC) | 0.0311 |
| GAGCGCTCTTGGGTTCTAACCTGTTGCCT (site GAGCGCTCTAG) | 1.48 |
| GAGCGCTCTTGGGTTCTAACCTGTTGCCT (site GAGTGCTCTAC) | 0.0357 |
| GAGCGCTCTTGGGTTCTAACCTGTTGCTG (site GAGCGCTCTAA) | 0.0574 |
| GAGCGCTCTTGGGTTCTAACCTGTTGCTG (site GAGCGCTCTCA) | 1.05 |
| GAGCGCTCTTGGGTTCTAACCTGTTGCTG (site GAGCGCTCTGA) | 0.207 |
| GAGCGCTCTTGGGTTCTAACCTGTTGCTG (site GAGCGCTCTTA) | 0.0132 |
| GAGCGGACTTGGGTTCTAACCTGTTGCTA (site GAGCGAGCTTA) | 0.0384 |
| GAGCGGACTTGGGTTCTAACCTGTTGCTA (site GAGCGGACTTA) | 1.83 |
| GAGCGGCCTTGGGTTCTAACCTGTTGCAG (site ATTTAAGCTAG) | 0.224 |
| GAGCGGCCTTGGGTTCTAACCTGTTGCAG (site GAGCGGCCTCT) | 1.72 |

| Sequence | recombinant barcode read abundance (log10) |
| --- | --- |
| GAGCTAGCTTGGGTTCTAACCTGTTGCGC (site GAGCTAGCTAC) | 0.109 |
| GAGCTAGCTTGGGTTCTAACCTGTTGCGC (site GAGCTAGCTGC) | 2.29 |
| GAGCTGCCTTGGGTTCTAACCTGTTGCCA (site AGCTAATCTAA) | 0.274 |
| GAGCTGCCTTGGGTTCTAACCTGTTGCCA (site GAGCTGCCTTG) | 1.66 |
| GAGCTTACTTGGGTTCTAACCTGTTGCCT (site GAGCTTACTAG) | 0.618 |
| GAGCTTACTTGGGTTCTAACCTGTTGCCT (site GCGCTTACTAG) | 0.0105 |
| GAGCTTACTTGGGTTCTAACCTGTTGCCT (site GGGCTTACTAG) | 0.299 |
| GAGCTTACTTGGGTTCTAACCTGTTGCCT (site GTGCTTACTAG) | 0.158 |
| GAGGAACCTTGGGTTCTAACCTGTTGCCT (site AAGGAACCTAG) | 1.57 |
| GAGGAACCTTGGGTTCTAACCTGTTGCCT (site CAGGAACCTAG) | 1.28 |
| GAGGAACCTTGGGTTCTAACCTGTTGCCT (site GAGGAACCTAG) | 2.12 |
| GAGGAACCTTGGGTTCTAACCTGTTGCCT (site TAGGAACCTAG) | 1.44 |
| GAGGAAGCTTGGGTTCTAACCTGTTGCCT (site GAGGAAGCTAG) | 1.81 |
| GAGGAAGCTTGGGTTCTAACCTGTTGCCT (site GCGGAAGCTAG) | 0.545 |
| GAGGAAGCTTGGGTTCTAACCTGTTGCCT (site GGGGAAGCTAG) | 0.316 |
| GAGGAAGCTTGGGTTCTAACCTGTTGCCT (site GTGGAAGCTAG) | 0.473 |
| GAGGACTCTTGGGTTCTAACCTGTTGCCC (site GAGGACTCTAG) | 2 |
| GAGGACTCTTGGGTTCTAACCTGTTGCCC (site GAGGACTCTCG) | 0.136 |
| GAGGACTCTTGGGTTCTAACCTGTTGCCC (site GAGGACTCTGG) | 2.39 |
| GAGGACTCTTGGGTTCTAACCTGTTGCCC (site GAGGACTCTTG) | 0.682 |
| GAGGAGTCTTGGGTTCTAACCTGTTGCCG (site AGAACACCTAA) | 0.0129 |
| GAGGAGTCTTGGGTTCTAACCTGTTGCCG (site GAGGAGTCTCG) | 1.3 |

| Sequence | recombinant barcode read abundance (log10) |
| --- | --- |
| GAGGAGTCTTGGGTTCTAACCTGTTGCCT (site GAGAAGTCTAG) | 1.02 |
| GAGGAGTCTTGGGTTCTAACCTGTTGCCT (site GAGCAGTCTAG) | 0.0568 |
| GAGGAGTCTTGGGTTCTAACCTGTTGCCT (site GAGGAGTCTAG) | 2.55 |
| GAGGAGTCTTGGGTTCTAACCTGTTGCCT (site GAGTAGTCTAG) | 0.171 |
| GAGGATCCTTGGGTTCTAACCTGTTGCCT (site GAGGATCCTAG) | 2.12 |
| GAGGATCCTTGGGTTCTAACCTGTTGCCT (site GGGGATCCTAG) | 0.457 |
| GAGGCAACTTGGGTTCTAACCTGTTGCTT (site CACGCAACTAA) | 0 |
| GAGGCAACTTGGGTTCTAACCTGTTGCTT (site GAGGCAACTAA) | 0.0561 |
| GAGGCTCCTTGGGTTCTAACCTGTTGCCG (site GAGGCTCCTAG) | 0.113 |
| GAGGCTCCTTGGGTTCTAACCTGTTGCCG (site GAGGCTCCTCG) | 0.993 |
| GAGGCTCCTTGGGTTCTAACCTGTTGCCG (site GAGGCTCCTGG) | 0.138 |
| GAGGCTCCTTGGGTTCTAACCTGTTGCCG (site GAGGCTCCTTG) | 0.238 |
| GAGGGTACTTGGGTTCTAACCTGTTGCCT (site GAGCATACTAG) | 0.295 |
| GAGGGTACTTGGGTTCTAACCTGTTGCCT (site GAGGGTACTAG) | 1.76 |
| GAGGGTTCTTGGGTTCTAACCTGTTGCAT (site GAGGGTGCTAG) | 0.528 |
| GAGGGTTCTTGGGTTCTAACCTGTTGCAT (site GAGGGTTCTAT) | 2.66 |
| GAGGTAGCTTGGGTTCTAACCTGTTGCCT (site GAGGTAGCTAG) | 1.18 |
| GAGGTAGCTTGGGTTCTAACCTGTTGCCT (site GATGTATCTAG) | 0.563 |
| GAGGTGCCTTGGGTTCTAACCTGTTGCAG (site ATAACCTCTAG) | 0.174 |
| GAGGTGCCTTGGGTTCTAACCTGTTGCAG (site GAGGTGCCTCT) | 1.44 |
| GAGTAGTCTTGGGTTCTAACCTGTTGCCT (site GAGAAGTCTAG) | 0.0847 |
| GAGTAGTCTTGGGTTCTAACCTGTTGCCT (site GAGCAGTCTAG) | 1.27 |

| Sequence | recombinant barcode read abundance (log10) |
| --- | --- |
| GAGTAGTCTTGGGTTCTAACCTGTTGCCT (site GAGGAGTCTAG) | 0.00957 |
| GAGTAGTCTTGGGTTCTAACCTGTTGCCT (site GAGTAGTCTAG) | 2.39 |
| GAGTCTCCTTGGGTTCTAACCTGTTGCGG (site CTTCGGACTAA) | 0.187 |
| GAGTCTCCTTGGGTTCTAACCTGTTGCGG (site GAGTCTCCTCC) | 0.316 |
| GAGTGAGCTTGGGTTCTAACCTGTTGCAT (site GAGAGAGCTAT) | 0.645 |
| GAGTGAGCTTGGGTTCTAACCTGTTGCAT (site GAGCGAGCTAT) | 1.95 |
| GAGTGAGCTTGGGTTCTAACCTGTTGCAT (site GAGGGAGCTAT) | 0.986 |
| GAGTGAGCTTGGGTTCTAACCTGTTGCAT (site GAGTGAGCTAT) | 2.53 |
| GAGTGAGCTTGGGTTCTAACCTGTTGCGT (site GAGCGATCTAC) | 0.689 |
| GAGTGAGCTTGGGTTCTAACCTGTTGCGT (site GAGTGAGCTAC) | 3 |
| GAGTGCTCTTGGGTTCTAACCTGTTGCGT (site GAGCGCTCTAG) | 0.0262 |
| GAGTGCTCTTGGGTTCTAACCTGTTGCGT (site GAGTGCTCTAC) | 2.29 |
| GAGTGGCCTTGGGTTCTAACCTGTTGCCT (site GAGTGGCCTAA) | 0.316 |
| GAGTGGCCTTGGGTTCTAACCTGTTGCCT (site GAGTGGCCTAC) | 0.121 |
| GAGTGGCCTTGGGTTCTAACCTGTTGCCT (site GAGTGGCCTAG) | 0.346 |
| GAGTGGCCTTGGGTTCTAACCTGTTGCCT (site GAGTGGCCTAT) | 0.182 |
| GAGTGGCCTTGGGTTCTAACCTGTTGCGA (site GAGTGGCCTTC) | 2.02 |
| GAGTGGCCTTGGGTTCTAACCTGTTGCGA (site TCCGTATCTCT) | 0.0392 |
| GAGTGGCCTTGGGTTCTAACCTGTTGCGT (site GAGTGGCCTAA) | 0.314 |
| GAGTGGCCTTGGGTTCTAACCTGTTGCGT (site GAGTGGCCTAC) | 2.4 |
